The results in this text go back to patent publication US20230086702A1, “SUBSTITUTED 2-AMINO-PYRAZOLYL-[1,2,4]TRIAZOLO[1,5A]PYRIDINE DERIVATIVES AND USE THEREOF” (The Johns Hopkins University, priority 2019, published 2023).

In one test the target is T1, DLK (Homo sapiens, UniProt Q12852).
T1 construct: 10 nM DLK, catalytic domain, Carna Biosiences; purchased Carna Biosciences ('Carna Biosiences' [sic])
T1 sequence (Q12852 125-366 limits assumed): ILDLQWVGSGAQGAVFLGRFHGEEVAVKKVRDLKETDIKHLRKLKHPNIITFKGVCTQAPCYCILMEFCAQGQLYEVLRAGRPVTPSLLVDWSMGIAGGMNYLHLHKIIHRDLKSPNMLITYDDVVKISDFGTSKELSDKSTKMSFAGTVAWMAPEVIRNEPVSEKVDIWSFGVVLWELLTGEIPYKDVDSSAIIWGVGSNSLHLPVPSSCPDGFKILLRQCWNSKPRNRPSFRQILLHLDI
The test can be described thus: DLK biochemical assay (TR-FRET, MKK7 phosphorylation). A digest of the protocol: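 TR-FRET read-out (665/Eu ratio) of MKK7 T275/S277 phosphorylation, with inhibition lowering the signal. Final conditions: 10 nM DLK catalytic domain, 15 nM MKK7, 60 μM ATP, 90 min at RT. Detection incubation 16 h at 37° C in 1536-well or 4° C in 384-well format.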

Another test addresses T2, LZK (Homo sapiens, UniProt O43283).
T2 construct: 10 nM LZK, catalytic domain, Carna Biosiences in assay buffer; purchased Carna Biosciences ('Carna Biosiences' [sic])
T2 sequence (O43283 168-409 limits assumed): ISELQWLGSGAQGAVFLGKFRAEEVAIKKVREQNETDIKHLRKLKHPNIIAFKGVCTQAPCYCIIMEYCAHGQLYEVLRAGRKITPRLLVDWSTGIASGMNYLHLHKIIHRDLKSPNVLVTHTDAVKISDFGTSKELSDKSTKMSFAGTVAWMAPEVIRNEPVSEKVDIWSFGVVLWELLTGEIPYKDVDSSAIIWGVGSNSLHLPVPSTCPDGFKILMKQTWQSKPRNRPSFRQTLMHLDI
Description: LZK biochemical assay (TR-FRET, MKK7 phosphorylation). An outline of the steps: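 Read-out is HTRF: Eu-labelled anti-phospho-MKK7 (T275/S277) and XL665 anti-His, incubated 16 h at 32 °C, with a drop in signal marking inhibition. Reaction beforehand: 10 nM LZK kinase domain, 15 nM His-MKK7, 15 µM ATP (final) for 90 min at room temperature, pH 7.5.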
(In TR-FRET formats the signal depends on donor and acceptor labels being close together.)

A word on the IC50: it is the midpoint of a concentration-inhibition curve. `CCC(c1ccc(C(F)(F)F)nc1)n1cc(-c2cc(-c3ccc(C(F)(F)F)nc3)c3nc(N)nn3c2)cn1` (single isomer, unassigned) [II-38, 8-[6-(Trifluoromethyl)pyridin-3-yl]-6-(1-{1-[6-(trifluoromethyl)pyridin-3-yl]propyl}-1H-pyrazol-4-yl)[1,2,4]triazolo[1,5-a]pyridin-2-amine]: the IC50 was 56 nM on DLK and 120 nM against LZK.

Take `CCC(c1ccc(C(F)(F)F)nc1)n1cc(-c2cc(-c3ccc(C(F)(F)F)nc3)c3nc(N)nn3c2)cn1` (single isomer, unassigned) [II-39, 8-[6-(Trifluoromethyl)pyridin-3-yl]-6-(1-{1-[6-(trifluoromethyl)pyridin-3-yl]propyl}-1H-pyrazol-4-yl)[1,2,4]triazolo[1,5-a]pyridin-2-amine]: the values for the IC50 at DLK and against LZK were 24 nM and 52 nM, respectively.

`CC(C)C(c1ccc(C(F)(F)F)nc1)n1cc(-c2cc(-c3ccc(C(F)(F)F)nc3)c3nc(N)nn3c2)cn1` (single isomer, unassigned) [II-41, 6-(1-{2-Methyl-1-[6-(trifluoromethyl)pyridin-3-yl]propyl}-1H-pyrazol-4-yl)-8-[6-(trifluoromethyl)pyridin-3-yl][1,2,4]triazolo[1,5-a]pyridin-2-amine]: the half-maximal inhibitory concentration (IC50) worked out at 380 nM against DLK and 770 nM against LZK.

As to `CC(C)C(c1ccc(C(F)(F)F)nc1)n1cc(-c2cc(-c3ccc(C(F)(F)F)nc3)c3nc(N)nn3c2)cn1` (single isomer, unassigned) [II-42, 6-(1-{2-Methyl-1-[6-(trifluoromethyl)pyridin-3-yl]propyl}-1H-pyrazol-4-yl)-8-[6-(trifluoromethyl)pyridin-3-yl][1,2,4]triazolo[1,5-a]pyridin-2-amine], the figures for the half-maximal inhibitory concentration (IC50) against DLK and at LZK were 18 nM and 52 nM, respectively.

In the case of `CC(C)C(c1ccc(C(F)(F)F)nc1)n1cc(-c2cc(-c3ccc(C4CC4)nc3)c3nc(N)nn3c2)cn1` (single isomer, unassigned) [II-44], the values for the IC50 on DLK and at LZK were 60 nM and 100 nM, respectively.

As to `CC(C)C(c1ccc(C(F)(F)F)nc1)n1cc(-c2cc(-c3ccc(C4CC4)nc3)c3nc(N)nn3c2)cn1` (single isomer, unassigned) [II-45, 8-(6-Cyclopropylpyridin-3-yl)-6-(1-{2-methyl-1-[6-(trifluoromethyl)pyridin-3-yl]propyl}-1H-pyrazol-4-yl)[1,2,4]triazolo[1,5-a]pyridin-2-amine], the half-inhibitory concentration (IC50) at DLK worked out at 9.5 nM; against LZK, 10 nM.

On to `CC(C)C(c1ccc(C(F)F)nc1)n1cc(-c2cc(-c3ccc(OC(F)F)nc3)n3nc(N)nc3c2)cn1` (single isomer, unassigned) [II-50, 5-[6-(Difluoromethoxy)pyridin-3-yl]-7-(1-{1-[6-(difluoromethyl)pyridin-3-yl]-2-methylpropyl}-1H-pyrazol-4-yl)[1,2,4]triazolo[1,5-a]pyridin-2-amine], for which the figures for the IC50 against DLK and against LZK were 280 nM and 270 nM, respectively.

`CC(C)C(c1ccc(C(F)F)nc1)n1cc(-c2cc(-c3ccc(OC(F)F)nc3)n3nc(N)nc3c2)cn1` (single isomer, unassigned) [II-51, 5-[6-(Difluoromethoxy)pyridin-3-yl]-7-(1-{1-[6-(difluoromethyl)pyridin-3-yl]-2-methylpropyl}-1H-pyrazol-4-yl)[1,2,4]triazolo[1,5-a]pyridin-2-amine]: the IC50 against DLK is 13 nM; against LZK it was 25 nM.

As to `CC(C)C(c1ccc(C(F)F)nc1)n1cc(-c2cc(-c3ccc(C4CC4)nc3)n3nc(N)nc3c2)cn1` (single isomer, unassigned) [II-53, 5-(6-Cyclopropylpyridin-3-yl)-7-(1-{1-[6-(difluoromethyl)pyridin-3-yl]-2-methylpropyl}-1H-pyrazol-4-yl)[1,2,4]triazolo[1,5-a]pyridin-2-amine], the results for the IC50 on DLK and against LZK were 33 nM and 48 nM, respectively.

Regarding `CC(C)C(c1ccc(C(F)F)nc1)n1cc(-c2cc(-c3ccc(C4CC4)nc3)n3nc(N)nc3c2)cn1` (single isomer, unassigned) [II-54, 5-(6-Cyclopropylpyridin-3-yl)-7-(1-{1-[6-(difluoromethyl)pyridin-3-yl]-2-methylpropyl}-1H-pyrazol-4-yl)[1,2,4]triazolo[1,5-a]pyridin-2-amine], the 50% inhibitory concentration (IC50) is 4 nM against DLK and 8.9 nM on LZK.

As for `CCC(c1ccc(C(F)(F)F)nc1)n1cc(-c2cc(-c3ccc(C4CC4)nc3)n3nc(N)nc3c2)cn1` (single isomer, unassigned) [II-56, 5-(6-Cyclopropylpyridin-3-yl)-7-(1-{1-[6-(trifluoromethyl)pyridin-3-yl]propyl}-1H-pyrazol-4-yl)[1,2,4]triazolo[1,5-a]pyridin-2-amine], the results for the 50% inhibitory concentration (IC50) against DLK and at LZK were 37 nM and 56 nM, respectively.

On to `CCC(c1ccc(C(F)(F)F)nc1)n1cc(-c2cc(-c3ccc(C4CC4)nc3)n3nc(N)nc3c2)cn1` (single isomer, unassigned) [II-57, 5-(6-Cyclopropylpyridin-3-yl)-7-(1-{1-[6-(trifluoromethyl)pyridin-3-yl]propyl}-1H-pyrazol-4-yl)[1,2,4]triazolo[1,5-a]pyridin-2-amine], for which the 50% inhibitory concentration (IC50) against DLK was determined as 18 nM; against LZK, 14 nM.

`CC(C)C(c1ccc(C(F)(F)F)nc1)n1cc(-c2cc(-c3ccc(C4CC4)nc3)n3nc(N)nc3c2)cn1` (single isomer, unassigned) [II-59, 5-(6-Cyclopropylpyridin-3-yl)-7-(1-{2-methyl-1-[6-(trifluoromethyl)pyridin-3-yl]propyl}-1H-pyrazol-4-yl)[1,2,4]triazolo[1,5-a]pyridin-2-amine]: the IC50 at DLK was found to be 92 nM; on LZK, 190 nM.

On to `CC(C)C(c1ccc(C(F)(F)F)nc1)n1cc(-c2cc(-c3ccc(C4CC4)nc3)n3nc(N)nc3c2)cn1` (single isomer, unassigned) [II-60, 5-(6-Cyclopropylpyridin-3-yl)-7-(1-{2-methyl-1-[6-(trifluoromethyl)pyridin-3-yl]propyl}-1H-pyrazol-4-yl)[1,2,4]triazolo[1,5-a]pyridin-2-amine], for which the IC50 against DLK turned out to be 11 nM; against LZK it was 7.9 nM.

As to `CCC(c1ccc(C(F)F)nc1)n1cc(-c2cc(-c3ccc(C(F)(F)F)nc3)n3nc(N)nc3c2)cn1` (single isomer, unassigned) [II-62, 7-(1-{1-[6-(Difluoromethyl)pyridin-3-yl]propyl}-1H-pyrazol-4-yl)-5-[6-(trifluoromethyl)pyridin-3-yl][1,2,4]triazolo[1,5-a]pyridin-2-amine], the IC50 came out at 440 nM at DLK and 220 nM against LZK.

With `CCC(c1ccc(C(F)F)nc1)n1cc(-c2cc(-c3ccc(C(F)(F)F)nc3)n3nc(N)nc3c2)cn1` (single isomer, unassigned) [II-63, 7-(1-{1-[6-(Difluoromethyl)pyridin-3-yl]propyl}-1H-pyrazol-4-yl)-5-[6-(trifluoromethyl)pyridin-3-yl][1,2,4]triazolo[1,5-a]pyridin-2-amine], the figures for the IC50 against DLK and on LZK were 97 nM and 51 nM, respectively.

In the case of `CC(C)C(c1ccc(C(F)F)nc1)n1cc(-c2cc(-c3ccc(C(F)(F)F)nc3)n3nc(N)nc3c2)cn1` (single isomer, unassigned) [II-65, 7-(1-{1-[6-(Difluoromethyl)pyridin-3-yl]-2-methylpropyl}-1H-pyrazol-4-yl)-5-[6-(trifluoromethyl)pyridin-3-yl][1,2,4]triazolo[1,5-a]pyridin-2-amine], the IC50 against DLK was 440 nM; at LZK, 210 nM.

As for `CC(C)C(c1ccc(C(F)F)nc1)n1cc(-c2cc(-c3ccc(C(F)(F)F)nc3)n3nc(N)nc3c2)cn1` (single isomer, unassigned) [II-66, 7-(1-{1-[6-(Difluoromethyl)pyridin-3-yl]-2-methylpropyl}-1H-pyrazol-4-yl)-5-[6-(trifluoromethyl)pyridin-3-yl][1,2,4]triazolo[1,5-a]pyridin-2-amine], the half-maximal inhibitory concentration (IC50) is 45 nM against DLK and 43 nM against LZK.

In the case of `CCC(c1ccc(C(F)F)nc1)n1cc(-c2cc(-c3ccc(C4CC4)nc3)n3nc(N)nc3c2)cn1` (single isomer, unassigned) [II-68, 5-(6-Cyclopropylpyridin-3-yl)-7-(1-{1-[6-(difluoromethyl)pyridin-3-yl]propyl}-1H-pyrazol-4-yl)[1,2,4]triazolo[1,5-a]pyridin-2-amine], the results for the half-inhibitory concentration (IC50) against DLK and against LZK were 36 nM and 86 nM, respectively.

Consider `CCC(c1ccc(C(F)F)nc1)n1cc(-c2cc(-c3ccc(C4CC4)nc3)n3nc(N)nc3c2)cn1` (single isomer, unassigned) [II-69, 5-(6-Cyclopropylpyridin-3-yl)-7-(1-{1-[6-(difluoromethyl)pyridin-3-yl]propyl}-1H-pyrazol-4-yl)[1,2,4]triazolo[1,5-a]pyridin-2-amine], for which the values for the IC50 against DLK and at LZK were 4.8 nM and 9.4 nM, respectively.
